Measured values from publication PMC5663093, “Bioprospecting of novel thermostable β-glucosidase from Bacillus subtilis RA10 and its application in biomass hydrolysis” (Biotechnology for Biofuels, 2017).

Legend:
[1] = molecular target: T1, BglB (β-glucosidase from B. subtilis RA10) (Bacillus subtilis, UniProt P42403); assay: β-glucosidase activity with added glucose ([…]); assay type: biochemical; conditions: inhibitor (product); weak inhibition
T1 construct: gene bglC; full-length GH1 gene (1437 bp, start MIHKKQG, end TNGKSL fixed by degenerate primers) in pET28a+ (BamHI/SalI), E. coli BL21(DE3); Asn169-Glu170, nucleophile Glu377

[2] = molecular target: T1, BglB (β-glucosidase from B. subtilis RA10); assay: Michaelis-Menten nonlinear regression, p-nitrophenol release; assay type: biochemical; conditions: 50 mM citrate pH 5.0; 0.5-5.0 mM substrate

T1 sequence (P42403 whole entry): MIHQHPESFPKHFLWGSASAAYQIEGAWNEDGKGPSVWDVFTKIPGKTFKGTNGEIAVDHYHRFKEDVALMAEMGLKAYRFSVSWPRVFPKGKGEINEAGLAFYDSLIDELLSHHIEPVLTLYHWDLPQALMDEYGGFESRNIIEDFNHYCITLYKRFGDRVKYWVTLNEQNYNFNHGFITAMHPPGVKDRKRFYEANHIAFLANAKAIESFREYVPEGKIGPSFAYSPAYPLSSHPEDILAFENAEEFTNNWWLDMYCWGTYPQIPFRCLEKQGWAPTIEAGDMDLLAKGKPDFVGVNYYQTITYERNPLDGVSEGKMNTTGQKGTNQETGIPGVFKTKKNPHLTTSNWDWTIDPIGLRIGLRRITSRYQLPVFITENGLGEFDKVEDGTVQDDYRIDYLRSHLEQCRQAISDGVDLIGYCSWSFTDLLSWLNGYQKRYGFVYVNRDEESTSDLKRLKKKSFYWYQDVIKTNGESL

Row | % activity retained at 1000 mM [1] [%] | Km [2] [mM] | Structure (SMILES)
1 | 70 |  | OC[C@H]1OC(O)[C@H](O)[C@@H](O)[C@@H]1O (stereo partly drawn) [D-glucose]
2 |  | 3.9 ± 0.2 | O=[N+]([O-])c1ccc(O[C@@H]2O[C@H](CO)[C@@H](O)[C@H](O)[C@H]2O)cc1 [pNPG, p-nitrophenyl-β-D-glucopyranoside]
